Reference: patent US7968577B2 (Bristol-Myers Squibb Company, priority 2006, dated 2011)

Tested on: AP-1 induced transcriptional activity
Assay: Cellular Transrepressional Assay: AP-1 luciferase reporter in PMA-activated A549 cells
Type: cell-based
Conditions: for Emax: A549, 7 h, read-out: AP-1 Max % inh (Cellular Transrepression Assay)
Method: Cellular Transrepressional Assay
To measure the ability of test molecules to inhibit AP-1 induced transcriptional activity we utilized an A549 cell which was stably transfected with a plasmid containing 7× AP-1 DNA binding sites (pAP-1-Luc plasmid, Stratagene Co. La Jolla, Calif.) followed by the gene for luciferase. Cells were activated with 10 ng/ml of […] (PMA) plus or minus test molecules for 7 hours. After 7 hours a luciferase reagent was added to measure luciferase enzymatic activity in the cell. After a 10 minute incubation of luciferase reagent with cells, luminescence was measured in a TopCount luminescence counter. Repression of AP-1 activity was calculated as the percentage decrease in the signal induced by PMA alone. Test molecules were analyzed in the concentration range from 0.1 nM to 40 μM. EC50s were determined by using standard curve fitting methods such as Excel fit (Microsoft Co.).

[1] = Homo sapiens, maximum inhibition, Cellular Transrepression Assay
[2] = Homo sapiens, A549, Cellular Transrepression Assay

EC50 [2] [nM] | EC50 (Cellular Transrepression Assay) [nM] | Structure (SMILES) | Emax [1] [%] | AP-1 Max % inh (Cellular Transrepression Assay) (maximum inhibition, Cellular Transrepression Assay) [%]
 |  | Cc1csc(NC(=O)C(C)(C)C(c2ccccc2)c2cccc(O)c2)n1 (centres unmarked) [Example 198, 3-(3-hydroxyphenyl)-2,2-dimethyl-N-(4-methyl-1,3-thiazol-2-yl)-3-phenylpropanamide] | 25.8 | 
 |  | Cc1cnc(NC(=O)C(C)(C)C(c2ccccc2)c2cccc(O)c2)s1 (centres unmarked) [Example 199, 3-(3-hydroxyphenyl)-2,2-dimethyl-N-(5-methyl-1,3-thiazol-2-yl)-3-phenylpropanamide] | 31.1 | 
 |  | CC(C)(C(=O)Nc1nc(CCc2ccccc2)cs1)C(c1ccccc1)c1cccc(O)c1 (centres unmarked) [Example 203, 3-(3-hydroxyphenyl)-2,2-dimethyl-3-phenyl-N-(4-(2-phenylethyl)-1,3-thiazol-2-yl)propanamide] | 35.1 | 
 |  | CCOC(=O)c1sc(NC(=O)C(C)(C)C(c2ccccc2)c2cccc(O)c2)nc1C (centres unmarked) [Example 206, ethyl 2-((3-(3-hydroxyphenyl)-2,2-dimethyl-3-phenylpropanoyl)amino)-4-methyl-1,3-thiazole-5-carboxylate] | 37.7 | 
86.5 |  | CC(C)(C(=O)Nc1nccs1)C(c1ccccc1)c1ccc(O)cc1 (centres unmarked) [Example 209, 3-(4-hydroxyphenyl)-2,2-dimethyl-3-phenyl-N-1,3-thiazol-2-ylpropanamide] | 46.9 | 
516 |  | CC(C)(C(=O)Nc1nc(-c2cccc3ccccc23)cs1)C(c1ccccc1)c1ccc(O)cc1 (centres unmarked) [Example 217, 3-(4-hydroxyphenyl)-2,2-dimethyl-N-(4-(1-naphthalenyl)-1,3-thiazol-2-yl)-3-phenylpropanamide] | 35 | 
 |  | CCOC(=O)c1sc(NC(=O)C(C)(C)C(c2ccccc2)c2ccc(O)cc2)nc1C (centres unmarked) [Example 218, ethyl 2-((3-(4-hydroxyphenyl)-2,2-dimethyl-3-phenylpropanoyl)amino)-4-methyl-1,3-thiazole-5-carboxylate] | 38 | 
 |  | CC(C)(C(=O)Nc1nc2ccc(Cl)cc2s1)C(c1ccccc1)c1ccc(O)cc1 (centres unmarked) [Example 220, N-(6-chloro-1,3-benzothiazol-2-yl)-3-(4-hydroxyphenyl)-2,2-dimethyl-3-phenylpropanamide] | 36.2 | 
88.1 |  | CC(C)(C(=O)Nc1nc(Cc2ccc(-c3ccncc3)cc2)cs1)C(c1ccccc1)c1ccc(N2CCOCC2)cc1 (centres unmarked) [Example 223, 2,2-dimethyl-3-(4-(4-morpholinyl)phenyl)-3-phenyl-N-(4-((4-(4-pyridinyl)phenyl)methyl)-1,3-thiazol-2-yl)propanamide] | 70.8 | 
161 |  | CC(C)(C(=O)Nc1nccs1)C(c1ccccc1)c1ccc(N2CCOCC2)cc1 (centres unmarked) [Example 224, 2,2-dimethyl-3-(4-(4-morpholinyl)phenyl)-3-phenyl-N-1,3-thiazol-2-ylpropanamide] | 33.8 | 
 | 114 | CC(C)(C(=O)Nc1nncs1)C(c1ccccc1)c1ccc(N2CCOCC2)cc1 (centres unmarked) [Example 225, 2,2-dimethyl-3-(4-(4-morpholinyl)phenyl)-3-phenyl-N-1,3,4-thiadiazol-2-ylpropanamide] | 34.3 | 
666 |  | Cc1ccc(C(c2ccc(N3CCOCC3)cc2)C(C)(C)C(=O)Nc2nccs2)cc1 (centres unmarked) [Example 227, 2,2-dimethyl-3-(4-methylphenyl)-3-(4-(4-morpholinyl)phenyl)-N-1,3-thiazol-2-ylpropanamide] | 43.7 | 
33.5 |  | CC(C)(C(=O)Nc1nccs1)C(c1ccc(N2CCOCC2)cc1)c1cccc(F)c1 (centres unmarked) [Example 228, 3-(3-fluorophenyl)-2,2-dimethyl-3-(4-(4-morpholinyl)phenyl)-N-1,3-thiazol-2-ylpropanamide] | 36.9 | 
18.6 |  | CC(C)(C(=O)Nc1nncs1)C(c1ccc(N2CCOCC2)cc1)c1cccc(F)c1 (centres unmarked) [Example 229, 3-(3-fluorophenyl)-2,2-dimethyl-3-(4-(4-morpholinyl)phenyl)-N-1,3,4-thiadiazol-2-ylpropanamide] | 44.2 | 
573 |  | Cc1cccc(C(c2ccc(N3CCOCC3)cc2)C(C)(C)C(=O)Nc2nccs2)c1 (centres unmarked) [Example 234, 2,2-dimethyl-3-(3-methylphenyl)-3-(4-(4-morpholinyl)phenyl)-N-1,3-thiazol-2-ylpropanamide] | 39 | 
151 |  | CC(C)(C(=O)Nc1nncs1)C(c1ccccc1)c1ccc(N2CCCCC2)cc1 (centres unmarked) [Example 236, 2,2-dimethyl-3-phenyl-3-(4-(1-piperidinyl)phenyl)-N-1,3,4-thiadiazol-2-ylpropanamide] | 38.5 | 
 | 4.06 | CC(C)(C(=O)Nc1nncs1)C(c1ccccc1)c1ccc(N2CCOCC2)cc1 (centres unmarked) [Example 260, 2,2-dimethyl-3-(4-(4-morpholinyl)phenyl)-3-phenyl-N-1,3,4-thiadiazol-2-ylpropanamide] |  | 35.64
772 |  | CCOC(=O)c1csc(NC(=O)C(C)(C)[C@H](c2ccccc2)c2ccc(OC)cc2)n1 [Example 264, ethyl 2-((2,2-dimethyl-3-(4-(methyloxy)phenyl)-3-phenylpropanoyl)amino)-1,3-thiazole-4-carboxylate] | 58.6 | 
190 |  | COc1ccc([C@@H](c2ccccc2)C(C)(C)C(=O)Nc2nncs2)cc1 [Example 276, (3R)-2,2-dimethyl-3-(4-(methyloxy)phenyl)-3-phenyl-N-1,3,4-thiadiazol-2-ylpropanamide] | 34 | 
216 |  | COc1ccc(Cc2csc(NC(=O)C(C)(C)C(c3ccccc3)c3ccc(OC)cc3)n2)cc1 (centres unmarked) [Example 288, 2,2-dimethyl-3-(4-(methyloxy)phenyl)-N-(4-((4-(methyloxy)phenyl)methyl)-1,3-thiazol-2-yl)-3-phenylpropanamide] | 62.2 | 
18.5 |  | COc1ccc(C(c2ccccc2)C(C)(C)C(=O)Nc2nc(Cc3ccc(-c4ccncc4)cc3)cs2)cc1 (centres unmarked) [Example 289, 2,2-dimethyl-3-(4-(methyloxy)phenyl)-3-phenyl-N-(4-((4-(4-pyridinyl)phenyl)methyl)-1,3-thiazol-2-yl)propanamide] | 71.6 | 
262 |  | COc1ccc(Cc2csc(NC(=O)C(C)(C)C(c3ccccc3)c3ccccc3)n2)cc1 [Example 297, 2,2-dimethyl-N-(4-((4-(methyloxy)phenyl)methyl)-1,3-thiazol-2-yl)-3,3-diphenylpropanamide] | 77.3 | 
417 |  | COc1ccc(Cc2csc(NC(=O)C(C)(C)C(c3ccccc3)c3cccc(OC)c3)n2)cc1 (centres unmarked) [Example 298, 2,2-dimethyl-3-(3-(methyloxy)phenyl)-N-(4-((4-(methyloxy)phenyl)methyl)-1,3-thiazol-2-yl)-3-phenylpropanamide] | 78.7 | 
13.3 |  | CC(C)(C(=O)Nc1nc(Cc2ccc(-c3ccncc3)cc2)cs1)C(c1ccccc1)c1ccccc1 [Example 299, 2,2-dimethyl-3,3-diphenyl-N-(4-((4-(4-pyridinyl)phenyl)methyl)-1,3-thiazol-2-yl)propanamide] | 69.3 | 
9.97 |  | CC(C)(C(=O)Nc1nc(Cc2ccc(-c3ccncc3)cc2)cs1)C(c1ccccc1)c1ccc(Br)cc1 (centres unmarked) [Example 300, 3-(4-bromophenyl)-2,2-dimethyl-3-phenyl-N-(4-((4-(4-pyridinyl)phenyl)methyl)-1,3-thiazol-2-yl)propanamide] | 73.7 | 
